From ChEMBL document CHEMBL3638839, “Azetidine derivatives” (2015)

Target: T1, Fatty-acid amide hydrolase 1 (Homo sapiens, UniProt O00519)
T1 sequence (O00519 whole entry): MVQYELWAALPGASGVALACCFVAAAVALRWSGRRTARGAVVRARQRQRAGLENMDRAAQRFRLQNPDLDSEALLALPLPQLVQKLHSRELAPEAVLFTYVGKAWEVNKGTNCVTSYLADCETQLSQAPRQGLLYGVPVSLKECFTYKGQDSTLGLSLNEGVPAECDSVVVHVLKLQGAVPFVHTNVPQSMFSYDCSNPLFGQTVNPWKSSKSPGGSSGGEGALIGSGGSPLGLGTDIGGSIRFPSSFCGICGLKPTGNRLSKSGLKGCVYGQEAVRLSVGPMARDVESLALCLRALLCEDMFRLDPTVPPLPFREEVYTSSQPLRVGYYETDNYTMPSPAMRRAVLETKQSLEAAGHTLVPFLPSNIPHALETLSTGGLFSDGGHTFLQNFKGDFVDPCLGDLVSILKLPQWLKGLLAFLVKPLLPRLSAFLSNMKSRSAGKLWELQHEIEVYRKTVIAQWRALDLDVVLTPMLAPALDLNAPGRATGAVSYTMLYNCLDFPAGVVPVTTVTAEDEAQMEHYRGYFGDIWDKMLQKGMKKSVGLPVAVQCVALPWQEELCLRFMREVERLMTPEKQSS
Assay: Inhibition Assay: Human FAAH 1 activity was determined by measuring the liberation of the highly fluorescent 7-amino, 4-methyl Coumarin (AMC) generated during hydrolysis of the substrate arachidonoyl 7-amino, 4-methyl coumarin amide (AAMCA) by FAAH. Inhibition of human FAAH 1 activity was determined as a percentage reduction of the fluorescence determined in the absence of compound.The assay was carried out in black-walled, clear bottom, 384-well plates. 27.5 ul of human FAAH 1 protein (in FAAH assay buffer: 50 mM Hepes, 0.01% Triton X-100, 1 mM EDTA, 0.5 mg/ml BSA (fatty-acid-free), pH 8.2) was pre-incubated, at 10 nM, with increasing concentrations of compounds (2.5 ul in 100% DMSO) for 1 hour at room temperature. 2.5 ul of DMSO was added for total controls (100% FAAH activity) and 2.5 ul of URB-597, a known inhibitor of FAAH activity, (at a final, saturating, concentration of 10 uM) was used for non-specific controls (0 FAAH activity).

SMILES: COc1ccccc1-c1ccc(OC2CN(C(=O)Nc3cccnn3)C2)nc1
- IC50: 12 nM
